Data: patent US12656344B2, “CTL peptide epitopes and antigen-specific T cells, methods for their discovery, and uses thereof” (Oslo universitetssykehus HF, priority 2013, dated 2026)
Where no end group is shown, it is not given here.

Tests used:
[1] = test system: primary T cells transduced with a MART-1 specific TCR; experiment: Binding of alanine-replaced peptide #25 multimers to MART-1 TCR transduced T cells; format: cell-based, human; conditions: specificity control for alanine-replaced multimers
[2] = test system: T cell clones reactive to MPO peptide #25; experiment: Binding of HLA-A2 multimers with alanine-substituted MPO peptide #25 to T cell clones; format: cell-based, human; conditions: PE-conjugated multimers; 3 T cell clones from CTL line #25; flow cytometry
Description: FIG. 6A-C. […] (A) Assays were performed as described in FIG. 2, except that only degranulation responses were measured. […] (B) Three of the clones shown in (A) were examined for binding of PE-conjugated HLA-A2 multimers containing the #25 peptide with and without an alanine substitution in each position, using flow cytometry.
To obtain more information on the range of T cell reactivities to one of these novel T cell epitopes, T-cell clones were generated from CTL line #25, specific for MPO epitope […] (SEQ ID NO:45).

P506A: MPO peptide #25 (LIQPFMFRL) with an alanine-replacement in position 4, in HLA-A2 multimer (LIQAFMFRL; also: in HLA-A2 multimer) [Peptide P506A]
Multimer binding to primary T cells transduced with a MART-1 specific TCR [1]: bound non-specifically
HLA-A2 multimer binding of alanine-substituted #25 peptide relative to WT peptide [2]: higher binding
